Reference: EP0415470A2, “Aminopeptidase” (CAMPINA MELKUNIE B.V., priority 1989, dated 1991)
Entries after “also recorded” stand apart in the source; their conditions may differ. Where a SMILES comes first, the peptide text is derived from it. The star is where a group is joined. pNA = O=[N+]([O-])c1ccc(N*)cc1

Columns and labels:
[1] = molecular target: T1, aminopeptidase of L. lactis subsp. cremoris Wg2 (Lactococcus lactis subsp. cremoris, UniProt P0C2T8); type: biochemical
T1 sequence (P0C2T8 1-846): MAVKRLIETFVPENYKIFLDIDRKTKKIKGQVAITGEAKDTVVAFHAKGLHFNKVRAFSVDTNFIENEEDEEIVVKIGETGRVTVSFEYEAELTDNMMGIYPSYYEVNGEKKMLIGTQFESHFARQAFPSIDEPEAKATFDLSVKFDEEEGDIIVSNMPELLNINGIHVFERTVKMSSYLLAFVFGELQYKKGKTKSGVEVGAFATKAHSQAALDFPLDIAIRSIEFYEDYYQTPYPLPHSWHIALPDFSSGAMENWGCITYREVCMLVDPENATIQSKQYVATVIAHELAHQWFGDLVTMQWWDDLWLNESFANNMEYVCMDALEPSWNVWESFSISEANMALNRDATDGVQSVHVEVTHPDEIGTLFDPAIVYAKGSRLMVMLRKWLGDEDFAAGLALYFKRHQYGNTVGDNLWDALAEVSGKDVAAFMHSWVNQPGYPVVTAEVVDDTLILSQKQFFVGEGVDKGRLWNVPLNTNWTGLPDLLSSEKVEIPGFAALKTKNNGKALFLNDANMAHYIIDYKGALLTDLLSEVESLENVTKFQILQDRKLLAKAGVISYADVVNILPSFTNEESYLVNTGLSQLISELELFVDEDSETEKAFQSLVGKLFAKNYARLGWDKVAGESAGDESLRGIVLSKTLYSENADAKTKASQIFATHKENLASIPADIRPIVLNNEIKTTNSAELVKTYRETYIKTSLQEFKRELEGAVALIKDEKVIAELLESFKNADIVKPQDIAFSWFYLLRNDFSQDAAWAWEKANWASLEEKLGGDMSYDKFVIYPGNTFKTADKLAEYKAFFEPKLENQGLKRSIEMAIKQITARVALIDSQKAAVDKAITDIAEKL

[2] = molecular target: T1, aminopeptidase of L. lactis subsp. cremoris Wg2; test: Hydrolysis of lysyl-p-nitroanilide / X-p-nitroanilide substrates (release of p-nitroanilide at 410 nm); conditions: for Relative activity (%): relative hydrolysis velocity of X-p-nitroanilide substrates
[3] = molecular target: T1, aminopeptidase of L. lactis subsp. cremoris Wg2; test: Hydrolysis of peptides detected by thin-layer chromatography (TLC); type: biochemical; design: The cell extract obtained after sonication and centrifugation of L. lactis subsp. cremoris Wg2; endogenous in cells; host or cells: Proteinase-negative variant of Lactococcus lactis subsp. cremoris Wg2; Enzyme purified from the cell-free extract by DEAE-Sephacel, phenyl-Sepharose, Sephadex G-100 SF and MA7P HPLC; not recombinant; key to Activity: + : hydrolysis; - : no hydrolysis to be observed; conditions: for hydrolysis of peptides (in words): peptide as substrate of the aminopeptidase; for Activity: substrate specificity, 2 mM substrate, 20 mM HEPES pH 7, 60 min. at 30°C, TLC
Experimental: Hydrolysis of several peptides was detected by thin-­layer chromatography (TLC). Peptidase activity was determined as follows: the reaction mixture containing 2 mM substrate in 20 mM 4-(2-hydroxyethyl)-1-piperazine-ethanesulphonic acid (HEPES) pH 7 and a suitable amount of enzyme was incubated for 60 min. at 30°C. The reaction mixture (10 microliter) was then placed on a precoated silica gel 60 plate having a layer thickness of 0.25 cm (Merck, Darmstadt, West-Germany). A 75% (wt./vol.) phenol/water mixture and in some cases a 4/1/1 (vol./vol./vol.) mixture of n-butanol, acetic acid and water was used as mobile phase. As a control, 2 mM of each standard peptide was also placed on the plate. The silica gels were coloured by spraying them with 0.1% (wt./vol.) ninhydrin in 99% ethanol. Peptides and amino acids became visible after incubation of the silica gel in an oven for 5 min. at 80°C.

[4] = molecular target: T1, aminopeptidase of L. lactis subsp. cremoris Wg2; type: biochemical; remark: listed apart in the source
[5] = molecular target: T1, aminopeptidase of L. lactis subsp. cremoris Wg2; test: Hydrolysis of lysyl-p-nitroanilide / X-p-nitroanilide substrates (release of p-nitroanilide at 410 nm); type: biochemical; design: The cell extract obtained after sonication and centrifugation of L. lactis subsp. cremoris Wg2; endogenous in cells; host or cells: Proteinase-negative variant of Lactococcus lactis subsp. cremoris Wg2; Enzyme purified from the cell-free extract by DEAE-Sephacel, phenyl-Sepharose, Sephadex G-100 SF and MA7P HPLC; not recombinant; conditions: relative hydrolysis velocity of X-p-nitroanilide substrates
Experimental: Hydrolysis of lysyl-p-nitroanilide was determined by the method of Exterkate, Neth. Milk Diary J. 29, 1975, 303-318. A 2 mM solution of lysyl-p-nitroanilide was incubated for 15 minutes with a suitable amount of enzyme. The reaction was stopped by adding acetic acid up to a final concentration of 10%, and the amount of p-nitroanilide was measured at 410 nm (Hitachi U-1100 spectrophotometer).
All measurements of enzyme activities were carried out at 30°C in 20 mM HEPES pH 7, unless specified.
The highest activity was found for lysyl-p-nitroanilide and to a lesser extent for leucyl-p-nitroanilide. […] The affinity of the enzyme for lysyl-p-nitroanilide was determined.

[6] = substrate: NCCCCC(N)C(=O)Nc1ccc([N+](=O)[O-])cc1; test: purified protein, by the assay type; conditions: other: Lineweaver-Burk plot, substrate of the aminopeptidase; pH 7.0; 30.0 °C

Molecule: O=C(O)CN(CCN(CC(=O)O)CC(=O)O)CC(=O)O [EDTA]
- inhibition of the enzyme activity by chelating agents (in words) [1]: complete inhibition; also recorded: sensitivity

Molecule: NCC(=O)Nc1ccc([N+](=O)[O-])cc1 [Gly-pNA]
- Relative activity (%) [2]: < 1%

Molecule: CC(C)CC(N)C(=O)Nc1ccc([N+](=O)[O-])cc1 (stereo not drawn) [Leu-pNA, leucyl-p-nitroanilide]
- hydrolysis of p-nitroanilide substrates (in words) [2]: hydrolyses
- Relative activity (%) [2]: 24%

Molecule: carboxybenzoxy-phenylalanyl-alanine
- hydrolysis of peptides (in words) [3]: does not seem capable of hydrolysis

Molecule: O=C(O)c1cc[c]([Hg][Cl])cc1 [pCMB, p-chloromercuribenzoate]
- effect of chemical reagents on the aminopeptidase activity (in words) [1]: completely inhibited; also recorded: strong inhibition

Molecule: COC(CNC(=O)c1ccccc1OCC(=O)O)[CH2][Hg][OH] (stereo not drawn) [mersalyl, O-(3-hydroxymercuri-2-methoxypropyl) carbamyl phenoxyacetate]
- effect of chemical reagents on the aminopeptidase activity (in words) [1]: completely inhibited; also recorded: strong inhibition

Molecule: Phe-Leu
- hydrolysis of peptides (in words) [3]: does not prove capable of significant hydrolysis
- Activity [3]: -

Molecule: NCCCCC(N)C(=O)Nc1ccc([N+](=O)[O-])cc1 (stereo not drawn) [Lys-pNA, lysyl-p-nitroanilide]
- hydrolysis of p-nitroanilide substrates (in words) [2]: hydrolyses
- maximum peptide hydrolysis velocity ([2]; Lineweaver-Burk plot): 1 millimol/min./mg
- Relative activity (%) [2]: 100%

Molecule: OCCS [β-mercaptoethanol]
- effect of chemical reagents on the aminopeptidase activity (in words) [1]: no inhibitory effect; also recorded: insensitive
- inactivating effects of pCMB and mersalyl undone by reducing agent (in words) [4]: completely undone

Molecule: O=C(Nc1ccc([N+](=O)[O-])cc1)C1CCCN1 (stereo not drawn) [Pro-pNA]
- Relative activity (%) [2]: < 1%

Molecule: CC(N)C(=O)Nc1ccc([N+](=O)[O-])cc1 (stereo not drawn) [Ala-pNA]
- Relative activity (%) [2]: 4%

Molecule: benzoyl-glycyl-lysine
- hydrolysis of peptides (in words) [3]: does not seem capable of hydrolysis

Molecule: [Mg+2] [Mg⁺⁺]
- inhibitory effect of divalent cations on the enzyme activity (in words) [1]: no inhibitory effect at all
- restoration of the activity of the enzyme treated with 1,10-phenanthroline (in words) [1]: could not restore the enzyme activity

Molecule: PMSF
- effect of chemical reagents on the aminopeptidase activity (in words) [1]: insensitive

Molecule: NC(=O)CI [iodoacetamide]
- effect of chemical reagents on the aminopeptidase activity (in words) [1]: inhibitory effect; also recorded: strong inhibition

Molecule: N[C@@H](CCC(=O)O)C(=O)Nc1ccc([N+](=O)[O-])cc1 [Glu-pNA]
- Relative activity (%) [2]: < 1%

Molecule: Bradykinin (RPPGFSPFR; Bradykinin; UniProt P01042 381-389, looked up)
- hydrolysis of peptides (in words) [3]: hydrolyses; also recorded: can also act on
- Activity [3]: +

Molecule: CSCCC(N)C(=O)Nc1ccc([N+](=O)[O-])cc1 (stereo not drawn) [Met-pNA, methionyl-p-nitroanilide]
- Relative activity (%) [2]: 8%

Molecule: Leu-Leu
- hydrolysis of peptides (in words) [3]: hydrolyses
- Activity [3]: +

Molecule: NC(Cc1ccccc1)C(=O)Nc1ccc([N+](=O)[O-])cc1 (stereo not drawn) [Phe-pNA]
- Relative activity (%) [2]: 4%

Molecule: c1cnc2c(c1)ccc1cccnc12 [1,10-phenanthroline]
- inhibition of the enzyme activity by chelating agents (in words) [1]: complete inhibition; also recorded: sensitivity

Molecule: C[C@H](N)C(=O)N1CCC[C@H]1C(=O)Nc1ccc([N+](=O)[O-])cc1 [Ala-Pro-pNA] (H-Ala-Pro-pNA)
- Relative activity (%) [5]: 4%

Molecule: [Ca+2] [Ca⁺⁺]
- inhibitory effect of divalent cations on the enzyme activity (in words) [1]: no inhibitory effect at all
- restoration of the activity of the enzyme treated with 1,10-phenanthroline (in words) [1]: could not restore the enzyme activity

Molecule: O=S(=O)(O)c1cc[c]([Hg][Cl])cc1 [pCMBS, p-chloromercuribenzenesulphonate]
- effect of chemical reagents on the aminopeptidase activity (in words) [1]: completely inhibited; also recorded: strong inhibition

Molecule: CCN1C(=O)C=CC1=O [NEM, N-ethylmaleimide]
- effect of chemical reagents on the aminopeptidase activity (in words) [1]: inhibitory effect; also recorded: strong inhibition

Molecule: carbobenzoxy-prolylalanine
- hydrolysis of peptides (in words) [3]: does not seem capable of hydrolysis

Molecule: Phe-Val
- hydrolysis of peptides (in words) [3]: does not prove capable of significant hydrolysis
- Activity [3]: -

Molecule: alanyl-alanine [Ala-Ala]
- hydrolysis of peptides (in words) ([3]; listed as ala-ala): does not prove capable of significant hydrolysis
- hydrolysis of peptides (in words) ([3]; listed as alanyl-alanine): not
- Activity [3]: -

Molecule: OC(CS)C(O)CS (stereo not drawn) [DTT, dithiotreitol]
- effect of chemical reagents on the aminopeptidase activity (in words) [1]: no inhibitory effect; also recorded: insensitive
- inactivating effects of pCMB and mersalyl undone by reducing agent (in words) [4]: completely undone

B1: aminopeptidase of L. lactis subsp. cremoris Wg2 (Lactococcus cremoris) (protein)
chain: T1 sequence (P0C2T8 1-846)
- Km [6]: 550 µM
- Vmax [6]: 1000 µmol/min. mg protein
- kcat [6]: 1580 s⁻¹
